Measured values: patent US12233144B2, “Method for stabilizing retinoic acid precursors and a skin benefit composition with stabilized retinoic acid precursors” (Conopco, Inc., priority 2016, dated 2025)
Where two headings read alike, the source gives them in different places.

What was measured:
[1] = Storage stability of retinoic acid precursor (RAP) in caprylic capric triglyceride at 45° C, RAP amount by HPLC; assay type: physicochemical; conditions: for Initial RAP Concentration, Week 0 / RAP Concentration, Week 1 / RAP Concentration, Week 4 / RAP Concentration, Week 20: Example 1, caprylic capric triglyceride carrier, storage 45° C, ER 0.35% where present
Procedure: Compositions were prepared with caprylic capric triglyceride as the carrier to 100%. Storage was maintained at 45° C. Assessment of RAP amount in the formulae was achieved via HPLC using ASTM Standards. […]

[2] = as above; assay type: physicochemical; conditions: Example 3; RAP alone, no SBA (ratio —)

Structure (SMILES) | Effect on stability of the RAPs (in words) [1] | Week 4 % Remaining [1] [%] | Week 20 % Remaining [1] [%] | Initial RAP Concentration, Week 0 [1] [%] | RAP Concentration, Week 1 [1] | RAP Concentration, Week 4 [1] [%] | RAP Concentration, Week 20 [1] [%] | Week 4 % Remaining ([1]; 4 week, 0.1 %) [%] | Week 20 % Remaining ([1]; 20 week, 0.1 %) [%] | Week 0 Concentration [2] | Week 1 Concentration [2] | Week 4 Concentration [2]
CCc1ccc(O)cc1O [4-ethyl resorcinol] | improves the stability of the RAPs by preventing oxidation | – | – | – | – | – | – | – | – | – | – | –
COc1ccc(C(=O)COC(=O)\C=C(C)/C=C/C=C(C)/C=C/C2=C(C)CCCC2(C)C)cc1 [Retextra ®, hydroxyanasatil retinoate] | – | 0 | 0 | 0.36 | 0.14% | 0 | 0 | – | – | – | – | –
CC1=C(/C=C/C(C)=C/C=C/C(C)=C/CO)C(C)(C)CCC1 [Retinol] | – | – | – | 0.1 | 0.042% | 0.001 | 0 | 1 | 0 | 0.1 | 0.042 | 0.001
CCC(=O)OC/C=C(C)/C=C/C=C(C)/C=C/C1=C(C)CCCC1(C)C [Retinyl Propionate] | – | 84 | 0 | 0.38 | No | 0.32 | 0 | – | – | 0.38 | 0.38 | 0.32
